# Data reported in the supplement of paper PMC10307832.
# Legend:
# Assay in all cases: relative viability (nuclei count vs DMSO), 5 days (fraction); higher = more cells survive
# EPLC-272H = test system: EPLC-272H
# Summary of the method: (§1)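 Values are medians from duplicate plates. Each reflects relative viability, defined as the nuclei count of treated wells over that of vehicle wells. Lung cancer cell lines in 1536-well plates were pin-tool dosed one day after seeding with one drug alone or with a fixed anchor-drug dose plus five library-drug doses (not always all listed) in √10 steps, then fixed, stained and imaged at 4× after 5 days.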
# H3255 = test system: H3255
# Summary of the method: as §1
# HARA = test system: HARA
# Summary of the method: as §1
# LC-2-ad = test system: LC-2-ad
# Summary of the method: as §1
# LOU-NH91 = test system: LOU-NH91
# Summary of the method: as §1
# NCI-H1650 = test system: NCI-H1650
# Summary of the method: as §1
# NCI-H1651 = test system: NCI-H1651
# Summary of the method: as §1
# NCI-H1975 = test system: NCI-H1975
# Summary of the method: as §1
# NCI-H2009 = test system: NCI-H2009
# Summary of the method: as §1
# NCI-H2023 = test system: NCI-H2023
# Summary of the method: as §1
# NCI-H2085 = test system: NCI-H2085
# Summary of the method: as §1
# NCI-H2087 = conditions: first compound 0.2 µM
# Summary of the method: as §1
smiles,measurement,setting,value
Cc1csc(=NC2CCCCC2)n1/N=C/c1ccc(O)c(O)c1O [MIM1] + CCNC(=O)c1noc(-c2cc(C(C)C)c(O)cc2O)c1-c1ccc(CN2CCOCC2)cc1 [Luminespib] (partner 0.01 µM),relative viability,EPLC-272H; first compound 0.2 µM,0.491
same,relative viability,EPLC-272H; first compound 0.6325 µM,0.266
same,relative viability,EPLC-272H; first compound 2 µM,0.205
same,relative viability,EPLC-272H; first compound 6.325 µM,0.143
same,relative viability,EPLC-272H; first compound 20 µM,0.122
same,relative viability,H3255; first compound 0.2 µM,0.865
same,relative viability,H3255; first compound 0.6325 µM,0.85
same,relative viability,H3255; first compound 2 µM,0.798
same,relative viability,H3255; first compound 6.325 µM,0.769
same,relative viability,H3255; first compound 20 µM,0.34
same,relative viability,HARA; first compound 0.2 µM,0.866
same,relative viability,HARA; first compound 2 µM,0.776
same,relative viability,HARA; first compound 6.325 µM,0.251
same,relative viability,HARA; first compound 20 µM,0.0856
same,relative viability,LC-2-ad; first compound 0.2 µM,1.06
same,relative viability,LC-2-ad; first compound 0.6325 µM,0.964
same,relative viability,LC-2-ad; first compound 2 µM,0.727
same,relative viability,LC-2-ad; first compound 6.325 µM,0.485
same,relative viability,LC-2-ad; first compound 20 µM,0.233
same,relative viability,LOU-NH91; first compound 0.2 µM,0.338
same,relative viability,LOU-NH91; first compound 0.6325 µM,0.338
same,relative viability,LOU-NH91; first compound 2 µM,0.32
same,relative viability,LOU-NH91; first compound 6.325 µM,0.271
same,relative viability,LOU-NH91; first compound 20 µM,0.268
same,relative viability,NCI-H1650; first compound 0.2 µM,0.223
same,relative viability,NCI-H1650; first compound 0.6325 µM,0.189
same,relative viability,NCI-H1650; first compound 2 µM,0.221
same,relative viability,NCI-H1650; first compound 6.325 µM,0.19
same,relative viability,NCI-H1650; first compound 20 µM,0.22
same,relative viability,NCI-H1651; first compound 0.2 µM,0.876
same,relative viability,NCI-H1651; first compound 0.6325 µM,0.785
same,relative viability,NCI-H1651; first compound 2 µM,0.617
same,relative viability,NCI-H1651; first compound 6.325 µM,0.67
same,relative viability,NCI-H1651; first compound 20 µM,0.495
same,relative viability,NCI-H1975; first compound 0.2 µM,0.202
same,relative viability,NCI-H1975; first compound 0.6325 µM,0.261
same,relative viability,NCI-H1975; first compound 2 µM,0.193
same,relative viability,NCI-H1975; first compound 6.325 µM,0.279
same,relative viability,NCI-H1975; first compound 20 µM,0.136
same,relative viability,NCI-H2009; first compound 0.2 µM,1
same,relative viability,NCI-H2009; first compound 0.6325 µM,1.06
same,relative viability,NCI-H2009; first compound 2 µM,1.03
same,relative viability,NCI-H2009; first compound 6.325 µM,0.877
same,relative viability,NCI-H2009; first compound 20 µM,1.02
same,relative viability,NCI-H2023; first compound 0.2 µM,0.791
same,relative viability,NCI-H2023; first compound 0.6325 µM,0.691
same,relative viability,NCI-H2023; first compound 2 µM,0.646
same,relative viability,NCI-H2023; first compound 6.325 µM,0.388
same,relative viability,NCI-H2023; first compound 20 µM,0.07
same,relative viability,NCI-H2085; first compound 0.2 µM,0.42
same,relative viability,NCI-H2085; first compound 0.6325 µM,0.466
same,relative viability,NCI-H2085; first compound 2 µM,0.455
same,relative viability,NCI-H2085; first compound 6.325 µM,0.442
same,relative viability,NCI-H2085; first compound 20 µM,0.404
same,relative viability,NCI-H2087,0.145
